Measured values from paper PMC3345137 (Toxicology and Applied Pharmacology, 2011).

How the values were obtained:
[1] = test system: recombinant human acetylcholinesterase; conditions: experimental, ref Amitai et al., 1998; cited from earlier work
[2] = test system: butyrylcholinesterase; conditions: purified butyrylcholinesterase; ref Shenouda et al., 2009; cited from earlier work
[3] = target: porcine liver carboxylesterase; conditions: 25°C, ref Quistad and Casida, 2000; cited from earlier work
[4] = test system: recombinant human butyrylcholinesterase; conditions: experimental, ref Amitai et al., 1998; cited from earlier work
[5] = target: T1, Rat hydrolase A (Rattus norvegicus, UniProt P16303); type: biochemical
T1 sequence (P16303 19-565): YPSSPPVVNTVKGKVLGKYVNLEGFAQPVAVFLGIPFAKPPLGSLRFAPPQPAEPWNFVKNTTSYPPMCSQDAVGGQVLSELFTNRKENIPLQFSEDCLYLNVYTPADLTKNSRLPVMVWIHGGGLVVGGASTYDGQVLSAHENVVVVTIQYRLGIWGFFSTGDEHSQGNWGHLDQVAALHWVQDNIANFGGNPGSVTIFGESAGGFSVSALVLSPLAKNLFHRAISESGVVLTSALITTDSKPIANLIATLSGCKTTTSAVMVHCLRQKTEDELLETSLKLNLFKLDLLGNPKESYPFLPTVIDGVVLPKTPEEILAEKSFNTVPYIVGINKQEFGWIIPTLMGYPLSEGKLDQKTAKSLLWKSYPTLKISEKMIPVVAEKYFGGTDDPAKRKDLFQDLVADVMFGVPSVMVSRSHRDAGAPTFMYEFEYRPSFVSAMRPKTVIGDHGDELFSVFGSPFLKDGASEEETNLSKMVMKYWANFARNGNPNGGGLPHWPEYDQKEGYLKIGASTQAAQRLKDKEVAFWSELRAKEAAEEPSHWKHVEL

[6] = target: T2, Human recombinant CES2 (Carboxylesterase 2) (Homo sapiens, UniProt O00748); type: biochemical
T2 sequence (O00748 27-559): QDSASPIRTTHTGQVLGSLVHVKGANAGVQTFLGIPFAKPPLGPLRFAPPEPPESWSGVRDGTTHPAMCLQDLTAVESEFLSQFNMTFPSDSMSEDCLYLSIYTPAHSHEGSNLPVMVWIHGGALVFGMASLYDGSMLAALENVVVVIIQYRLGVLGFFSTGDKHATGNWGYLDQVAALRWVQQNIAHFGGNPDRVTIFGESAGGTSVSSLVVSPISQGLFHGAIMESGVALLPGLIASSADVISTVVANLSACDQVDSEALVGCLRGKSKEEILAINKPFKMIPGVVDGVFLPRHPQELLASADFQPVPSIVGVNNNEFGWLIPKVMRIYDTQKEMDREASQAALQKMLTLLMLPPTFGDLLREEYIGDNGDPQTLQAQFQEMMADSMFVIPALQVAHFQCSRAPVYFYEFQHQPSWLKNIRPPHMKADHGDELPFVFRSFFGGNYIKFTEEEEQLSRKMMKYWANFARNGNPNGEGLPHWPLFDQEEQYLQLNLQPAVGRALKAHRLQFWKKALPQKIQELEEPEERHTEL

[7] = target: T3, Human recombinant MGL (Monoacylglycerol lipase) (Homo sapiens, UniProt Q99685); type: biochemical; conditions: Michaelis constant of substrate pNPV with MGL, no inhibitor
T3 sequence (Q99685 1-303): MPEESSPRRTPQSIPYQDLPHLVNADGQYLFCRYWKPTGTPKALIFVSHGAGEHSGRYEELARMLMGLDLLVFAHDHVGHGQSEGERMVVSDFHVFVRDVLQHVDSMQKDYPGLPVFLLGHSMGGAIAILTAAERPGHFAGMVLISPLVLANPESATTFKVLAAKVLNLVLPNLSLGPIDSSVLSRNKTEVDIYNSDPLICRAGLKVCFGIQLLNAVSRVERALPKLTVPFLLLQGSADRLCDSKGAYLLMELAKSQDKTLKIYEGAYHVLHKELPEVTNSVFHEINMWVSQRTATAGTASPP

[8] = target: T4, Human recombinant CES1 (Carboxylesterase 1) (Homo sapiens, UniProt P23141); type: biochemical; conditions: Michaelis constant of substrate pNPV with CES1, no inhibitor
T4 sequence (P23141 18-567): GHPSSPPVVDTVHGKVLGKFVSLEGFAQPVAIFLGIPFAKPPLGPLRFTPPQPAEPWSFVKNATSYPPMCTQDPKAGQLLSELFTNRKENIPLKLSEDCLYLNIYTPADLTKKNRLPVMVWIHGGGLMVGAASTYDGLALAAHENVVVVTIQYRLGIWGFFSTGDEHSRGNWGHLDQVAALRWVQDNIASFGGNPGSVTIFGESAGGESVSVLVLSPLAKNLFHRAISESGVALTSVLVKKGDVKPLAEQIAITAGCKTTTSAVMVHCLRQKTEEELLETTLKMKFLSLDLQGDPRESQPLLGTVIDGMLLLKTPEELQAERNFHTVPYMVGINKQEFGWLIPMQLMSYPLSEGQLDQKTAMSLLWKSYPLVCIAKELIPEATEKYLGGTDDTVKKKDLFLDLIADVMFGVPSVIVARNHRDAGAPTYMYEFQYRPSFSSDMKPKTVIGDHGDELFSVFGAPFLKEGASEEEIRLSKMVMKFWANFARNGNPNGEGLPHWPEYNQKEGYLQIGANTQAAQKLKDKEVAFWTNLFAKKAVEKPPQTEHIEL

| Structure (SMILES) | bimolecular rate constant [1] [M⁻¹ s⁻¹] | bimolecular rate constant [2] [M⁻¹ s⁻¹] | IC50 [3] [nM] | bimolecular rate constant [4] [M⁻¹ s⁻¹] | bimolecular rate constant ([5]; rat hydrolase A purified from rat liver) [M⁻¹ s⁻¹] | true bimolecular rate constant ([6]; CES2, single representative experiment, calculated with Equation (4)) [M⁻¹ s⁻¹] | apparent bimolecular rate constant (ki’= kinact/KI’) ([6]; CES2, single representative experiment, pNPV 500 µM, 37°C) [M⁻¹ s⁻¹] | Km [7] [µM] | Km ([6]; Michaelis constant of substrate pNPV with CES2, no inhibitor) [µM] | Km [8] [µM] | Km ([5]; Michaelis constant of substrate pNPV with rat hydrolase A, no inhibitor) [µM] |
| --- | --- | --- | --- | --- | --- | --- | --- | --- | --- | --- | --- |
| CCOP(=O)(OCC)Oc1nc(Cl)c(Cl)cc1Cl [Chlorpyrifos Oxon, Chlorpyrifos oxon] | 167000 | 8.47e+08 | 2 | 2.78e+07 | 3.3e+06 | – | – | – | – | – | – |
| CCOP(=O)(OCC)Oc1ccc([N+](=O)[O-])cc1 [Paraoxon] | – | – | 3 | – | – | 29000 | 4400 | – | – | – | – |
| CCCCC(=O)Oc1ccc([N+](=O)[O-])cc1 [pNPV, para-Nitrophenyl valerate] | – | – | – | – | – | – | – | 158 ± 37 | 90 ± 12 | 136 ± 40 | 32.6 |
